According to patent US20050187253A1, “Medicinal kit to quit tobacco consumption comprising central cannabinoid receptor antagonist” (Sanofi-Aventis, priority 2000, published 2005):

Key:
[1] = system: rats which have learnt to self-administer nicotine intravenously; test: self-administration of nicotine in rats (model predicting effects on nicotine dependence); assay type: in vivo; settings: intravenous nicotine self-administration
From the text: The effects of compound A were studied in rats on a model which predicts the effects on nicotine dependence: the self-administration of nicotine according to W.T. Corrigal and al. Psychopharmacology, 1989, 99, 473-478.

[2] = system: individuals who smoked more than 15 cigarettes a day and who showed symptoms of nicotine dependence; test: double-blind placebo-controlled study of withdrawal from tobacco in smokers; assay type: in vivo, human; settings: 40 mg per day for 10 weeks, including 2 weeks before start of withdrawal; in particular during the last 4 weeks of treatment; confirmed by exhaled carbon monoxide and plasma cotinine
Description: The patients received 40 mg of compound A per day for 10 weeks, including 2 weeks before the start of the period of withdrawal from tobacco. […] The withdrawal from tobacco was confirmed by weekly measurement of the levels of carbon monoxide exhaled and of cotinine in the plasma.

Cc1c(C(=O)NN2CCCCC2)nn(-c2ccc(Cl)cc2Cl)c1-c1ccc(Cl)cc1 [compound A, N-piperidino-5-(4-chloro-phenyl)-1-(2,4-dichlorophenyl)-4-methylpyrazole-3-carboxamide]
number of nicotine injections ([1]; compound A at a dose of 0.3 mg/kg): reduces, in a statistically significant manner | number of nicotine injections ([1]; compound A at a dose of 1 mg/kg): reduces, in a statistically significant manner | level of withdrawal from tobacco versus placebo group [2]: greater level of withdrawal
